One data set has as its system mice. Type of data set: in vivo. Particulars: oral administration of 2 g/kg. The source says: Theanine, formulated in the theanine-containing composition of the present invention, is a glutamic acid derivative contained in tea-leaves, which is the main component of deliciousness (umami) of tea. It is also used as a food additive for seasoning. […] As described above, the theanine is an extremely safe substance.

In a further data set the test system is ICR male mice. Description: Example 11: amount of spontaneous exercise, rotatable cage. It counts as in vivo. Particulars: oral 10 ml of 1% by weight aqueous solution per 1 kg body weight, versus non-administered group. As to the method:
Ten ICR male mice were each orally administered with 10 ml of a 1% by weight theanine aqueous solution, per 1 kg of body weight, and the mice were allowed to stand in an inhalation box. The administered group of mice were compared with the 10 non-administered group of mice, wherein the amount of excercise was evaluated by counting the number of rotations of the rotatable cage for 60 minutes.

Data set [1] has as its system women complaining of premenstrual syndrome symptoms. Description: Test Example 5: premenstrual syndrome questionnaire, powdered L-theanine. Particulars: 20 women, 50 mg powdered L-theanine per day during corpus lutea stage. Type of data set: in vivo, humans. As for the experimental part: A test for assessing the premenstrual syndrome-suppressive effect of the inventive product was performed in 20 women complaining of 5 or more premenstrual syndrome symptoms. The inventive product used herein was powdered L-theanine as prepared in Example 1. Each subject was requested to measure their basal body temperature upon awaking for 2 months. […] During the test period, physical symptoms, mental symptoms and social symptoms were recorded in detail everyday. On the first day of the third menstruation, the test was terminated and a questionnaire survey was conducted. Questionnaire Survey Concerning Premenstrual Syndrome of Test Example 5 1. Were PMS symptoms suppressed ? 1) having remarkable effects; 2) having some effects; 3) having slight effects; 4) none. 2. For those selected 1), 2) or 3) in 1., were there any improvements in the daily life ? […] 3. For those selected 1), 2) or 3) in 1., please give specifics: […]

Another data set deals with male and female subjects. Description: Test Example 4: anxiety group after coffee extract beverage containing L-theanine. Type of data set: in vivo, humans. Particulars: 10 times per day for one month, 7 subjects. As for the experimental part:
Each of male and female subjects consisting of a total of 7 members was given a beverage prepared by dissolving the L-theanine obtained in Examples 1 and 2 at amounts of 0 mg, 60 mg, 300 mg or 1200 mg in 100 g of coffee extract in boiling water (equivalent to about 1 mg/kg, about 5 mg/kg, and about […], respectively) 10 times per day for one month.

Setting [2] is: Theanine content 60 mg in 100 g coffee extract.
Where [3] appears, read: Theanine content 300 mg in 100 g coffee extract.
[4] abbreviates: Theanine content 1200 mg in 100 g coffee extract.

Turning to `CCNC(=O)CC[C@H](N)C(=O)O` [L-theanine], the “dead cases in acute toxicity test” value in the data set on mice is “no dead cases”. For the same compound, the “amount of exercise (number of rotations of the rotatable cage for 60 minutes)” value in the data set with ICR male mice was “significant decrease”. Further, the “Were PMS symptoms suppressed? 4) none” value in data set [1] is on record as 0 subjects (0%). The “High-Anxiety Group (number of subjects)” value in the data set with male and female subjects (setting [2]) is on record as 2; in the data set with male and female subjects (setting [3]) it was 0; in the data set on male and female subjects (setting [4]) it was 0. Besides, the “Low-Anxiety Group (number of subjects)” value in the data set on male and female subjects (setting [2]) is listed as 2; with male and female subjects (setting [3]), 0; with male and female subjects (setting [4]), 7. For the same compound, the “Moderate-Anxiety Group (number of subjects)” value in the data set on male and female subjects (setting [2]) was determined as 3; in the data set on male and female subjects (setting [3]) it was 1; with male and female subjects (setting [4]), 0.

The values above are taken from patent US6589566B2, “Composition comprising theanine” (priority 1998, dated 2003).
